Measured values from ChEMBL document CHEMBL1201862, “PubChem BioAssay data set” (2004).
Values joined by “and” are separate entries in the source; they are usually repeats but may differ in a detail not shown here. Identical values can stand only once. Active and inactive are the calls of the source.

Columns and labels:
[1] = molecular target: Induced myeloid leukemia cell differentiation protein Mcl-1 (Homo sapiens, UniProt Q07820); format: functional
[2] = molecular target: T1, Tyrosine-protein phosphatase non-receptor type 22 (Homo sapiens, UniProt Q9Y2R2); assay: LYP phosphatase inhibition for selectivity, dose response, selectivity assay for LMPTP inhibitor project, biochemical, fluorescence, LYP catalytic domain (AID 652006); format: functional; details: read-out: IC50_Mean
T1 sequence (Q9Y2R2 whole entry): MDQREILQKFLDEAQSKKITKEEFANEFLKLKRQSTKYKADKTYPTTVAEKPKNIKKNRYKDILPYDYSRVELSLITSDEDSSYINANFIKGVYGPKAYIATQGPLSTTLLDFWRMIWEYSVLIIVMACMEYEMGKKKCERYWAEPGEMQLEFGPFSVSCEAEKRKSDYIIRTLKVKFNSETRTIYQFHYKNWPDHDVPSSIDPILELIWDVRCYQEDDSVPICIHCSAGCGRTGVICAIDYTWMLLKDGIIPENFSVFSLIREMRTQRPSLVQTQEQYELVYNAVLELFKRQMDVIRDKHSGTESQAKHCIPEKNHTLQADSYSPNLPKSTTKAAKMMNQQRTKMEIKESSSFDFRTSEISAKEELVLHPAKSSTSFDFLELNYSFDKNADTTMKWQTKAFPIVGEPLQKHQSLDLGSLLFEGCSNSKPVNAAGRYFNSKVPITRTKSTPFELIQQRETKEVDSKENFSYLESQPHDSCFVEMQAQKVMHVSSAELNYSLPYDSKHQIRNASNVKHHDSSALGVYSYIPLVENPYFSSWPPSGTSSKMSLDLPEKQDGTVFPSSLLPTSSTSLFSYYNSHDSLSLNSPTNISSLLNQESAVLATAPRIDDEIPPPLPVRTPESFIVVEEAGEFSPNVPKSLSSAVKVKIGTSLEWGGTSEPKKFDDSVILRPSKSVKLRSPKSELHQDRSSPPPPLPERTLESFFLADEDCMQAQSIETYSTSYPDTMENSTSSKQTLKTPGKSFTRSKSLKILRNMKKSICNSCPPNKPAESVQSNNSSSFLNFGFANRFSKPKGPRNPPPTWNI

[3] = molecular target: T2, Low molecular weight phosphotyrosine protein phosphatase (Homo sapiens, UniProt P24666); format: functional; details: read-out: IC50_Mean
[4] = molecular target: T2, Low molecular weight phosphotyrosine protein phosphatase; format: functional; details: read-out: IC50_Mean; remark: listed apart in the source
[5] = molecular target: DNA dC->dU-editing enzyme APOBEC-3A (Homo sapiens, UniProt P31941); assay: SAR analysis of small molecule inhibitors of APOBEC3A DNA Deaminase via a fluorescence-based single-stranded DNA deaminase assay.; format: functional; details: read-out: IC50_Mean
[6] = molecular target: DNA dC->dU-editing enzyme APOBEC-3G (Homo sapiens, UniProt Q9HC16); assay: APOBEC3G deaminase inhibitors, SAR follow-up, biochemical, fluorescence, single-stranded DNA substrate (AID 602136); format: functional; details: read-out: IC50_Mean
[7] = molecular target: T3, ATP-dependent translocase ABCB1 (Homo sapiens, UniProt P08183); assay: ABCG2 efflux pump inhibitor potency, dose response, Ig-MXP3 cells, JC-1, flow cytometry, set 2 (AID 504566); format: functional; details: read-out: EC50_MICROM_;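 note: flow cytometry median green fluorescence of retained JC-1 dye; potency of efflux pump inhibition measured as rising substrate retention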
[8] = molecular target: T3, ATP-dependent translocase ABCB1; assay: ABCB1 efflux inhibitor potency, dose response, Jurkat-DNR cells, JC-1, flow cytometry, set 2 (AID 504569); format: functional; details: read-out: EC50_MICROM_;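 note: potency of pump inhibitors that raise cellular JC-1 green fluorescence up to the nicardipine level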
[9] = ARNT/TACC3 interaction disruptors, potency, confirmation, biochemical, AlphaScreen, cherry-picked samples (AID 651703); format: functional, Homo sapiens;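 note: His-tagged ARNT PAS-B domain paired with GST-TACC3 E629A dimer coactivator fragment; potency of inhibitors that break up the complex and lower AlphaScreen signal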
[10] = molecular target: T4, Orexin/Hypocretin receptor type 1 (Homo sapiens, UniProt O43613); assay: (§1) Fluorescence-based cell-based high throughput dose response assay for antagonists of the orexin 1 receptor (OX1R; HCRTR1). [Related pubchem assays (depositor defined):AID434989, AID435008, AID463079, AID485270, AID492963, AID492964, AID492965, AID493232, AID504717, AID504718]; format: functional
T4 sequence (O43613 whole entry): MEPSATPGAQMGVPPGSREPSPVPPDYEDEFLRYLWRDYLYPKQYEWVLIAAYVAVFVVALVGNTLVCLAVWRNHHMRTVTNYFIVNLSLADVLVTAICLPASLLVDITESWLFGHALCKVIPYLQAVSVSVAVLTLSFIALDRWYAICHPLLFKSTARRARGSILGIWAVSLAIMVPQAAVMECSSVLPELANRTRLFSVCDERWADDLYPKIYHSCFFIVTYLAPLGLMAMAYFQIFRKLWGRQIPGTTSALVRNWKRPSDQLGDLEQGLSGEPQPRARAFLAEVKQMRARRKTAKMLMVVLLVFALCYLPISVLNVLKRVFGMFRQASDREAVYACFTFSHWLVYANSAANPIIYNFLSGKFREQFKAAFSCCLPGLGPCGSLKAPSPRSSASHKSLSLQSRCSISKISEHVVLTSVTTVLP

[11] = molecular target: T4, Orexin/Hypocretin receptor type 1; assay: as §1, with “Homogeneous Time Resolved Fluorescence (HTRF)-based” for “Fluorescence-based”; format: functional
[12] = molecular target: T5, Orexin receptor type 2 (Homo sapiens, UniProt O43614); assay: Counterscreen assay for antagonists of the orexin 1 receptor (OX1R; HCRTR1): Homogeneous Time Resolved Fluorescence (HTRF)-based cell-based dose response assay for antagonists of the orexin 2 receptor (OX2R; HCRTR2), run by assay provider.; format: functional
T5 sequence (O43614 whole entry): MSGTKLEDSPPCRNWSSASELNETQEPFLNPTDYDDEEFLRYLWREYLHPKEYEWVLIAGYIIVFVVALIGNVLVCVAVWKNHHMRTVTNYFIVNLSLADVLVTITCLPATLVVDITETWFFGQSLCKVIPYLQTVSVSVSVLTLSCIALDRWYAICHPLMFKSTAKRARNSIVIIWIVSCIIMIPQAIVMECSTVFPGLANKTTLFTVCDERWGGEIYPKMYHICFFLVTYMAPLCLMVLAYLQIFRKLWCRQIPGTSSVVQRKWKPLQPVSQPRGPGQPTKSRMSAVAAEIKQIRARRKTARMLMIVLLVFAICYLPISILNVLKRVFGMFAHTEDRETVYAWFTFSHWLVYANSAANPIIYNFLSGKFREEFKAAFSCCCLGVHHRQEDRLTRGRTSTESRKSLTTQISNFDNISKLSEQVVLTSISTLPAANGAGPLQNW

[13] = molecular target: T5, Orexin receptor type 2; assay: Counterscreen assay for antagonists of the orexin 1 receptor (OX1R; HCRTR1): Fluorescence-based cell-based dose response assay for antagonists of the orexin 2 receptor (OX2R; HCRTR2), run by assay provider.; format: functional
[14] = tested on: CHO-K1; assay: (§2) Counterscreen for antagonists of the orexin 1 receptor (OX1R; HCRTR1): Homogeneous time resolved fluorescence (HTRF)-based cell-based dose response assay to identify antagonists of the parental CHO-K1 cell line. [Related pubchem assays (depositor defined):AID434989, AID435008, AID463079, AID485270, AID492963, AID492964, AID492965, AID493232, AID504699, AID504701]; format: functional; details: Cricetulus griseus
[15] = as §2, with “Fluorescence-based” for “Homogeneous time resolved fluorescence (HTRF)-based”, “cell-based high throughput” for “cell-based”, “CHO” for “CHO-K1”; format: functional
[16] = molecular target: T6, Coagulation factor XII (Homo sapiens, UniProt P00748); format: functional;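 note: activated factor XIIa alpha cleaving a fluorogenic AMC peptide substrate; inhibitor potency from loss of enzyme activity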
T6 sequence (P00748 whole entry): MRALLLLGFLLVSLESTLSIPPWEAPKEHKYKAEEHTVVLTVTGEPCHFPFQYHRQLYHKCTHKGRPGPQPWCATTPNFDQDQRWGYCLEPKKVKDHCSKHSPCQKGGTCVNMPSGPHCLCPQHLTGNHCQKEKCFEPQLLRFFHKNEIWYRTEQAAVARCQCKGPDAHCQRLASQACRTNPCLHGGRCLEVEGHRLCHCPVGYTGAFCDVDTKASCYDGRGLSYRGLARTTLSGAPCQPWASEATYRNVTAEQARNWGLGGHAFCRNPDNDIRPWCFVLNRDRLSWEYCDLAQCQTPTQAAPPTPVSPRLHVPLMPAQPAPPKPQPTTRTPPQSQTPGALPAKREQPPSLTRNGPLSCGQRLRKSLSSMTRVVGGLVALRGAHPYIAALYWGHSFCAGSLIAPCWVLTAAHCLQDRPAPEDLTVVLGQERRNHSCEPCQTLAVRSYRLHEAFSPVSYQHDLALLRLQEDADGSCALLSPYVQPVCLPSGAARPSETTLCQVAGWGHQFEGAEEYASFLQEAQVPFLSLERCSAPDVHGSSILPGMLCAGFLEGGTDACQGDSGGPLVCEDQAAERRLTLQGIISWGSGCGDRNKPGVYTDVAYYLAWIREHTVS

[17] = molecular target: Benomyl/methotrexate resistance protein (Candida albicans, UniProt P28873); assay: CaMdr1 efflux pump inhibitor potency, dose response, singleplex, Cherry Pick1 hits (AID 588608); format: functional
[18] = molecular target: T7, Multidrug resistance protein CDR2 (Candida albicans (strain SC5314 / ATCC MYA-2876) (Yeast), UniProt P78595); assay: CaCDR2 efflux pump inhibitors in yeast, dose response, S. cerevisiae AD1-8u, singleplex, Cherry Pick1 hits (AID 588604); format: functional
T7 sequence (P78595 whole entry): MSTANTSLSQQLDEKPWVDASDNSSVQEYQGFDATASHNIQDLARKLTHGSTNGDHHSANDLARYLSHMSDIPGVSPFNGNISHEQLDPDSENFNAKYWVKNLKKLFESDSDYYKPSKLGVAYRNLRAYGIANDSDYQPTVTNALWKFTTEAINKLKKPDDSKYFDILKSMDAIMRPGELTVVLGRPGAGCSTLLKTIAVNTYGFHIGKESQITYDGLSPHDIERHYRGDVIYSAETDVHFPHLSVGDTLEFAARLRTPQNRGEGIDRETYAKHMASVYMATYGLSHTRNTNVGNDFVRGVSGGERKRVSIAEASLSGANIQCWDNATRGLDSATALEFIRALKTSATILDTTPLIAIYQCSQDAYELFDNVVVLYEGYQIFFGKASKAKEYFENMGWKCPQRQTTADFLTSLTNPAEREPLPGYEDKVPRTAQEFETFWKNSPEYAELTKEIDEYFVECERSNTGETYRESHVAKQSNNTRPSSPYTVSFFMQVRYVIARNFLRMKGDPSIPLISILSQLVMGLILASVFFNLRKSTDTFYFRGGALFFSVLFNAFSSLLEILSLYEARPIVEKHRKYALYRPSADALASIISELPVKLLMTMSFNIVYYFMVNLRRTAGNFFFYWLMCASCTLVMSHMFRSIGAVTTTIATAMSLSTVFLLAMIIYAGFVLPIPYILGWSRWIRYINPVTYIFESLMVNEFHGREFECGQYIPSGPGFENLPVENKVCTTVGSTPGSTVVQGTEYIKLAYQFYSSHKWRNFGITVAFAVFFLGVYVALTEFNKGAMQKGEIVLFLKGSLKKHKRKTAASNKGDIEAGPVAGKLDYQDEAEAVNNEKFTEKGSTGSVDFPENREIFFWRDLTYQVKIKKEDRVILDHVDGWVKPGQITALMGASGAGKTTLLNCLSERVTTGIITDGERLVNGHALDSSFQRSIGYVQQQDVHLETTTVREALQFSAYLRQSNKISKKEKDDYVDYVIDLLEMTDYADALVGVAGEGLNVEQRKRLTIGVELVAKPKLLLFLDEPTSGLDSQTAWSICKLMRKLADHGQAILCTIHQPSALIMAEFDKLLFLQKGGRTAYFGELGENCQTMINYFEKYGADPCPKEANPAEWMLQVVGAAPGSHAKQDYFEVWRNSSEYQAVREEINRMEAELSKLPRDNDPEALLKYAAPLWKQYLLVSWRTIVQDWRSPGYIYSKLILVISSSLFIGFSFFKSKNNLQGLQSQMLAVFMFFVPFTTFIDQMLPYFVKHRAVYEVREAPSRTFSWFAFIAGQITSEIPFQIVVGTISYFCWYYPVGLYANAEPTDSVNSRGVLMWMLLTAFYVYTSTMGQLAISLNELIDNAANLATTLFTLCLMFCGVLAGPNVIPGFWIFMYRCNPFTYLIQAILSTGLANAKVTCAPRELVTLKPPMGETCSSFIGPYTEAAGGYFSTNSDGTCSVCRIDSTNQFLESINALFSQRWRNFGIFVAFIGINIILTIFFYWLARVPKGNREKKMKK

[19] = cells; format: functional
[20] = molecular target: T8, Probable nicotinate-nucleotide adenylyltransferase (Staphylococcus aureus (strain N315), UniProt P65502); format: functional, Staphylococcus aureus subsp. aureus N315;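 for IC50 Mean: confirmatory dose-response retesting of NadD inhibitor hits first found in an ultra-high-throughput screen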
[21] = molecular target: T8, Probable nicotinate-nucleotide adenylyltransferase; format: functional, Staphylococcus aureus subsp. aureus N315; details: read-out: IC50_Mean

T3 sequence (P08183 whole entry): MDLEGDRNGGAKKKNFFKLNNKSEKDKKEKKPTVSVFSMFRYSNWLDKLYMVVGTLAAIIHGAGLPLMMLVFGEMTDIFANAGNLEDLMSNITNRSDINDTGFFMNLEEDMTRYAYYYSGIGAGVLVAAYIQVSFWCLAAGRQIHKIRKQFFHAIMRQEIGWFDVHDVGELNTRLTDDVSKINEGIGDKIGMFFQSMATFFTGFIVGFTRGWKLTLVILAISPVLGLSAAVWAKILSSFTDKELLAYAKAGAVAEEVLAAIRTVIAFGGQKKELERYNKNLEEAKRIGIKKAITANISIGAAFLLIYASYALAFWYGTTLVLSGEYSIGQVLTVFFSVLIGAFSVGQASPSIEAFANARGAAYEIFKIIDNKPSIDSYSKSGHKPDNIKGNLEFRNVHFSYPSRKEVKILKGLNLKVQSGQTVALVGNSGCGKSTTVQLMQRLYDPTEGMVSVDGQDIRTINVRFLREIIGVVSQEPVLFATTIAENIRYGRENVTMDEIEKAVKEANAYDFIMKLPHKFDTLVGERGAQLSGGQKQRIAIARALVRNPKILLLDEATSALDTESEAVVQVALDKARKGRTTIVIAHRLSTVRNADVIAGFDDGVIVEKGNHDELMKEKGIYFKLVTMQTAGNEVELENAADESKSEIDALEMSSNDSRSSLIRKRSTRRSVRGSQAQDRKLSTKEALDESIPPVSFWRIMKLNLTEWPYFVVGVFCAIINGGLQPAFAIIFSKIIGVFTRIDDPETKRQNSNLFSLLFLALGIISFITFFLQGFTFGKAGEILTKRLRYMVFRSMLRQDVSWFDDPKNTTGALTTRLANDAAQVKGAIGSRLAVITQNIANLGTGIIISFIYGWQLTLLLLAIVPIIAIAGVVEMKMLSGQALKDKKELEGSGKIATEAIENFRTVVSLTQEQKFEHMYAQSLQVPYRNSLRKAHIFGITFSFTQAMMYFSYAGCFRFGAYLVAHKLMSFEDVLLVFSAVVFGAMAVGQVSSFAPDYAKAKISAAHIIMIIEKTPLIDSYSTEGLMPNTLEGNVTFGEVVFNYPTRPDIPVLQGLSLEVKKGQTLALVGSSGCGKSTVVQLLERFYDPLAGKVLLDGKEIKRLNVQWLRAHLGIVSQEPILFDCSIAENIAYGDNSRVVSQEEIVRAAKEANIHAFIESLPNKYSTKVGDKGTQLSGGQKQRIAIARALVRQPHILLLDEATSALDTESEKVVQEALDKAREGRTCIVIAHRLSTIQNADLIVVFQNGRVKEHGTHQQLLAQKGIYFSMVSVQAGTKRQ
Chain of DNA dC->dU-editing enzyme APOBEC-3A (P31941 whole entry): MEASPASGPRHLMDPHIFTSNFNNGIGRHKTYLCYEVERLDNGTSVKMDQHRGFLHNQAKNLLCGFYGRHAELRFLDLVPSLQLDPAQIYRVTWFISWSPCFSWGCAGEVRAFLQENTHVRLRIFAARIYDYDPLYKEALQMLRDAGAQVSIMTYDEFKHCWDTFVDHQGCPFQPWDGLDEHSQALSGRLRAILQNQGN
Chain of DNA dC->dU-editing enzyme APOBEC-3G (Q9HC16 whole entry): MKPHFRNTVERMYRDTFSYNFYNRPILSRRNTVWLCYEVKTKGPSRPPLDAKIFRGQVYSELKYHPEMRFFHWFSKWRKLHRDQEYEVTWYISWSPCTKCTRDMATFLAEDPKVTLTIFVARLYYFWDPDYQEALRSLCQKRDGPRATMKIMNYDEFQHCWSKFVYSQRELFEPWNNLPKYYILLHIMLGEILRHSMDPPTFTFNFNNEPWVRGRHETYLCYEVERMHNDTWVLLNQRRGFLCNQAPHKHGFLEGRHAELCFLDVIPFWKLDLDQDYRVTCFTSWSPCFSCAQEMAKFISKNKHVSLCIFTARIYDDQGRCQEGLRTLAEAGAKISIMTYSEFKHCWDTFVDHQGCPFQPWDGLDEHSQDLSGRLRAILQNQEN
T2 sequence (P24666 whole entry): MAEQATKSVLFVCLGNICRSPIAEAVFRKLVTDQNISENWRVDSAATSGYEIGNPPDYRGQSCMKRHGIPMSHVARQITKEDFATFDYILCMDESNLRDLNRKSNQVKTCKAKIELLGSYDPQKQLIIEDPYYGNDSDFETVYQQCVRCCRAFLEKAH
Chain of Induced myeloid leukemia cell differentiation protein Mcl-1 (Q07820 whole entry, the tested form may be a part): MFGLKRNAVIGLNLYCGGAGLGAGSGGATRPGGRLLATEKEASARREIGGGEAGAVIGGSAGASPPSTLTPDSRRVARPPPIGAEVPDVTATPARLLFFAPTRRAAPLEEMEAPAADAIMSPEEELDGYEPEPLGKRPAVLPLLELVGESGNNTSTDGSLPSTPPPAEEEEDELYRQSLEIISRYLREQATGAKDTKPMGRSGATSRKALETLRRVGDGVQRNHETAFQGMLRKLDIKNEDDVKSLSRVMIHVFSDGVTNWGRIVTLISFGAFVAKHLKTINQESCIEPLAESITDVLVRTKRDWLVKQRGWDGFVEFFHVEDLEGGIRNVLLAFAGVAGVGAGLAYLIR
T8 sequence (P65502 whole entry): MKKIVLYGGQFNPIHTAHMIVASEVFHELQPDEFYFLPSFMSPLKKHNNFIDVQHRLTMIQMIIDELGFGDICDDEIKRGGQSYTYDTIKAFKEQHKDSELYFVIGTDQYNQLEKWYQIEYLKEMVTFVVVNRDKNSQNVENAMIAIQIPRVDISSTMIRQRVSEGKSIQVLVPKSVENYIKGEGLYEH
Chain of Benomyl/methotrexate resistance protein (P28873 whole entry): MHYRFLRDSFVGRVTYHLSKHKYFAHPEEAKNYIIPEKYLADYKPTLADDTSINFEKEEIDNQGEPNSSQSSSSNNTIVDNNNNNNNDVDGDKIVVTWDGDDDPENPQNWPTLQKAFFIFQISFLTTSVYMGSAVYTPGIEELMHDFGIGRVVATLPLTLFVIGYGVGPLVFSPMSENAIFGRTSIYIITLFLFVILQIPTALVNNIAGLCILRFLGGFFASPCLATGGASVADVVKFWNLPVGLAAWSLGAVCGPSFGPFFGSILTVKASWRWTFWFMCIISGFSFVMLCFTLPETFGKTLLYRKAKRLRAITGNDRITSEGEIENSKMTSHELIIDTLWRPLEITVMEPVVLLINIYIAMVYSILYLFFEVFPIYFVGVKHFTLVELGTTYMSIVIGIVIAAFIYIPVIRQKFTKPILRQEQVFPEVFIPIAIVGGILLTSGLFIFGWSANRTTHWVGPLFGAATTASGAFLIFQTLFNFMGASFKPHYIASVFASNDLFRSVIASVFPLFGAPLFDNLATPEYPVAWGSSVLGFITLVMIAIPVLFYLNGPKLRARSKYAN

SMILES: COc1ccc(-c2ccc(/C=N/NC(=O)c3cccnc3)o2)c([N+](=O)[O-])c1
- IC50 [1]: 3.42 µM (active)
- IC50 [2]: 38.5 µM (inactive)
- IC50 [3]: 12 µM (active)
- IC50 [4]: > 80 µM (inactive)

SMILES: Cc1ccc(-c2nnc(SC(C)C(=O)NCc3ccco3)n2C)cc1 (centres undefined)
- IC50 [5]: > 99 µM (inactive)
- IC50 [6]: > 99 µM (inactive)

SMILES: O=C(c1ccco1)N1CCN(c2cc(-c3ccccc3)nc3cc(-c4cccc(Cl)c4)nn23)CC1
- EC50 [7]: 720 nM (active) and 2 µM (active)
- EC50 [8]: 2.67 µM (active) and 3.69 µM (active)

SMILES: CCC(C)n1c(SCC(=O)NCc2ccco2)nnc1-c1cccc(S(=O)(=O)N2CCOCC2)c1 (centres undefined)
- IC50 [5]: > 99 µM (inactive)
- IC50 [6]: > 99 µM (inactive)

SMILES: O=C(N/N=C1/CCS(=O)(=O)c2ccc(F)cc21)c1ccccn1
- AC50 [9]: 78.4 µM (active)

SMILES: Cc1ccc(C(=O)N/C(=C/c2ccc(-c3cccc([N+](=O)[O-])c3)o2)C(=O)NC(C)(C)C)cc1
- IC50 [10]: > 5.53 µM (active)
- IC50 [11]: 2.09 µM (active)
- IC50 [12]: 2.42 µM (active)
- IC50 [13]: 27.9 µM (inactive)
- IC50 [14]: > 66.3 µM (inactive)
- IC50 [15]: > 49.8 µM (inactive)
- IC50 [16]: > 50 µM (inactive)

SMILES: COc1ccc(CCOC(=O)c2ccc(N)c([N+](=O)[O-])c2)cc1
- EC50 [17]: 0.011 µM (active)
- EC50 [18]: 4.29 µM (active)
- IC50 [19]: 21 µM (active)

SMILES: COc1ccc(/C=C2\SC(=O)N(CCC(=O)Nc3ccc(S(=O)(=O)Nc4nccs4)cc3)C2=O)cc1
- IC50 [1]: 3.11 µM (active)
- IC50 [20]: 15.2 µM (active)
- IC50 [21]: 73.1 µM (active)
